Assay results as given in PMC6277767, “Broad and Region-Specific Impacts of the Synthetic Cannabinoid CP 55,940 in Adolescent and Adult Female Mouse Brains” (Frontiers in Molecular Neuroscience, 2018).

System: CD1 female mouse brain lipidome
Assay: Brain-region lipid levels (HPLC/MS/MS lipidomics) 2 h after single i.p. 3 mg/kg CP 55,940 vs vehicle
Format: in vivo
Set-up: N-arachidonoyl phenylalanine level, Mean / N-stearoyl tryptophan level, Mean / N-stearoyl proline level, Mean / N-stearoyl leucine level, Mean / N-stearoyl phenylalanine level, Mean / N-stearoyl serine level, Mean / N-stearoyl methionine level, Mean: unit: moles per gram
Method: The Bloomington Institutional Animal Care and Use Committee of Indiana University reviewed and approved the animal procedures. Female mice from the CD1 strain were utilized to match our study examining THC’s effects on the brain lipidome ([Leishman et al., 2018]). Mice were given a single i.p. injection of either 3 mg/kg CP or 1:1:18 cremophor:ethanol:saline vehicle (please refer to the section “3 mg/kg CP Is Relevant for Synthetic Cannabinoid Abuse and Has Stronger Effects on the Female Mouse Brain Lipidome During Adolescence” for a justification of dose and use of female mice). Three different age groups were given injections: PND 35 and PND 50 adolescents, and adult mice (PND 113). At least eight mice in each age group received CP and at least eight received vehicle. Matching the THC study time course ([Leishman et al., 2018]), mice were sacrificed via rapid decapitation 2 h after injection. Brains were immediately removed and flash-frozen in liquid nitrogen, and then stored at -80°C until dissections were performed. Brains were dissected on an ice-cold dissection plate into the following regions: STR, HIPP, CER, THAL, CTX, HYP, MID, and STEM. These abbreviations for these brain areas will be used exclusively when discussing the results generated by these specific dissections. Each dissected area was immediately placed in liquid nitrogen and then stored at -80°C until used for lipid extraction.
Tissue extracts were performed as previously described ([Bradshaw et al., 2006]; [Stuart et al., 2013]; [Raboune et al., 2014]; [Leishman et al., 2016a],[b], [2017], [2018]). First, samples were shock frozen in liquid nitrogen, weighed, and transferred to a centrifuge tube. The mass of the largest sample was multiplied by 50 to determine how many milliliters of HPLC-grade methanol (Fisher, Fair Lawn, NJ, United States) to add. Then, samples were spiked with 500 pmol deuterium-labeled NAGly (d8NAGly; Cayman Chemical, Ann Arbor, MI, United States). Samples were placed on ice in darkness for 2 h then individually homogenized and centrifuged at 19,000 × g for 20 min at 20°C. Supernatants were diluted with HPLC water (purified in house) to make a solution of 75% water, 25% supernatant. Lipids were partially purified on C18 solid phase extraction columns (Agilent, Palo Alto, CA, United States). A series of four elutions with 1.5 mL of 60%, 75%, 85%, and 100% methanol were collected ([Stuart et al., 2013]; [Leishman et al., 2016a],[b], [2018]).
As previously described ([Bradshaw et al., 2006]; [Tan et al., 2006]; [Smoum et al., 2010]; [Stuart et al., 2013]; [Tortoriello et al., 2013]; [Raboune et al., 2014]; [Leishman et al., 2016a],[b], [2017], [2018]), samples were analyzed using an Applied Biosystems API 3000 triple quadrupole mass spectrometer with electrospray ionization (Foster City, CA, United States). Using an Agilent XDB-C18 reversed phase analytical column and optimized mobile phase gradients, 20 μL from each elution were chromatographed. Two Shimadzu 10ADvp pumps (Columbia, MD, United States) provided the pressure for gradient elution. Mobile phase A: 20% methanol, 80% water (v/v) and 1 mM ammonium acetate (Sigma, St. Louis, MO, United States). Mobile phase B: 100% methanol, 1 mM ammonium acetate. Every method run began with 0% mobile phase B, reached 100% mobile phase B flowing at 0.2 mL/min, and gradually returned to 0% mobile phase B.
This screening library will be referred to as the lipidome when discussing data from this study. HPLC/MS/MS data were analyzed using Analyst software (Applied Biosystems) ([Bradshaw et al., 2006]; [Tan et al., 2006]; [Stuart et al., 2013]; [Tortoriello et al., 2013]; [Raboune et al., 2014]; [Leishman et al., 2016a],[b], [2017], [2018]). Chromatograms (Supplementary Figure 3) were generated by determining the retention time of analytes from the analytical column with a [M-1] or [M+1] parent peak and a fragmentation peak corresponding to the programmed values. […]

[1] = hippocampus, PND 35 WT female mice, 3mg/kg CP 55,940
[2] = hypothalamus, PND 50, 3mg/kg CP 55,940
[3] = hypothalamus, PND 50 female mice, 3mg/kg CP 55,940

For `CCCCCCC(C)(C)c1ccc([C@@H]2C[C@H](O)CC[C@H]2CCCO)c(O)c1` [CP 55,940], the “N-arachidonoyl tryptophan level, Mean” value [1] was “BDL”, the “N-arachidonoyl tyrosine level, Mean” value [1] was 7.88E-13 and the “N-docosahexaenoyl GABA level, Mean” value [1] was 9.2E-13. The “N-docosahexaenoyl alanine level, Mean” value [1] was 5.16E-12, the “N-docosahexaenoyl ethanolamine level, Mean” value [1] was 3.15E-11 and the “N-docosahexaenoyl glycine level, Mean” value [1] was 1.89E-11. For the same compound, the “N-docosahexaenoyl leucine level, Mean” value [1] was 7.64E-13, the “N-docosahexaenoyl methionine level, Mean” value [1] was “BDL” and the “N-docosahexaenoyl phenylalanine level, Mean” value [1] was 1.25E-12. The “N-docosahexaenoyl proline level, Mean” value [1] was “BDL”, the “N-docosahexaenoyl serine level, Mean” value [1] was 2.42E-11 and the “N-docosahexaenoyl tryptophan level, Mean” value [1] was “BDL”. The “N-docosahexaenoyl tyrosine level, Mean” value [1] was “PISSR”, the “N-docosahexaenoyl valine level, Mean” value [1] was “PISSR” and the “N-linoleoyl GABA level, Mean” value [1] was 4.99E-13. The “N-linoleoyl alanine level, Mean” value [1] was 2.58E-12, the “N-linoleoyl ethanolamine level, Mean” value [1] was 6.76E-11 and the “N-linoleoyl glycine level, Mean” value [1] was 5.29E-12. The “N-linoleoyl leucine level, Mean” value [1] was 3.89E-13, the “N-linoleoyl methionine level, Mean” value [1] was “BDL” and the “N-linoleoyl phenylalanine level, Mean” value [1] was 2.51E-13. The “N-linoleoyl proline level, Mean” value [1] was “BDL”, the “N-linoleoyl serine level, Mean” value [1] was 8.04E-11 and the “N-linoleoyl tryptophan level, Mean” value [1] was “BDL”. For the same compound, the “N-linoleoyl tyrosine level, Mean” value [1] was “PISSR”, the “N-linoleoyl valine level, Mean” value [1] was “PISSR” and the “N-nervonoyl valine level, Mean” value [1] was “BDL”. The “N-oleoyl GABA level, Mean” value [1] was 2.89E-12, the “N-oleoyl alanine level, Mean” value [1] was 1.01E-11 and the “N-oleoyl dopamine level, Mean” value [1] was “BDL”. The “N-oleoyl ethanolamine level, Mean” value [1] was 1.48E-10, the “N-oleoyl glycine level, Mean” value [1] was 2.1E-11 and the “N-oleoyl leucine level, Mean” value [1] was 1.71E-12. The “N-oleoyl methionine level, Mean” value [1] was 8.45E-13, the “N-oleoyl phenylalanine level, Mean” value [1] was 1.23E-12 and the “N-oleoyl proline level, Mean” value [1] was “PISSR”. For the same compound, the “N-oleoyl serine level, Mean” value [1] was 3.91E-10, the “N-oleoyl tryptophan level, Mean” value [1] was “PISSR” and the “N-oleoyl tyrosine level, Mean” value [1] was 3.7E-13. The “N-oleoyl valine level, Mean” value [1] was 7.17E-13, the “N-palmitoyl GABA level, Mean” value [1] was 5.66E-12 and the “N-palmitoyl alanine level, Mean” value [1] was 1.96E-11. The “N-palmitoyl ethanolamine level, Mean” value [1] was 6.04E-11, the “N-palmitoyl glycine level, Mean” value [1] was 4.65E-11 and the “N-palmitoyl leucine level, Mean” value [1] was 4.19E-12. For the same compound, the “N-palmitoyl methionine level, Mean” value [1] was “PISSR”, the “N-palmitoyl phenylalanine level, Mean” value [1] was 2.85E-12 and the “N-palmitoyl proline level, Mean” value [1] was 1.75E-12. The “N-palmitoyl serine level, Mean” value [1] was 7.46E-11, the “N-palmitoyl tryptophan level, Mean” value [1] was 4.02E-13 and the “N-palmitoyl tyrosine level, Mean” value [1] was 1.11E-12. The “N-palmitoyl valine level, Mean” value [1] was 1.58E-12, the “N-stearoyl GABA level, Mean” value [1] was 5.59E-12 and the “N-stearoyl alanine level, Mean” value [1] was 1.75E-11. The “N-stearoyl ethanolamine level, Mean” value [1] was 1.72E-11, the “N-stearoyl glycine level, Mean” value [1] was 2.5E-11 and the “N-stearoyl leucine level, Mean” value [1] was 1.77E-12. For the same compound, the “N-stearoyl methionine level, Mean” value [1] was 1.74E-12, the “N-stearoyl phenylalanine level, Mean” value [1] was 2.56E-12 and the “N-stearoyl serine level, Mean” value [1] was 3.13E-11. For the same compound, the “N-stearoyl tryptophan level, Mean” value [1] was 1.25E-12, the “N-stearoyl tyrosine level, Mean” value [1] was 1.27E-13 and the “Oleic acid level, Mean” value [1] was 2.69E-09. For the same compound, the “PGE2 level, Mean” value [1] was 1.12E-09, the “PhosphoLEA level, Mean” value [1] was 2.75E-11 and the “THC level, Mean” value [1] was “BDL”. For the same compound, the “2-arachidonoyl glycerol, Direction (relative to Veh)” value [2] was “↓”, the “N-arachidonoyl phenylalanine, Direction (relative to Veh)” value [2] was “↓” and the “N-palmitoyl leucine, Direction (relative to Veh)” value [2] was “↑”. The “PGF2α Direction (relative to Veh)” value [2] was “↑”, the “PGF2α Magnitude (x Veh level)” value (hypothalamus, PND 50, 3mg/kg CP 55,940, ANOVA p .005) was 1.49 x Veh level and the “N-arachidonoyl phenylalanine, Magnitude (x Veh level)” value (hypothalamus, PND 50, 3mg/kg CP 55,940, ANOVA p .013) was 0.70 x Veh level. The “N-palmitoyl leucine, Magnitude (x Veh level)” value (hypothalamus, PND 50, 3mg/kg CP 55,940, ANOVA p .022) was 1.34 x Veh level, the “2-arachidonoyl glycerol, Magnitude (x Veh level)” value (hypothalamus, PND 50, 3mg/kg CP 55,940, ANOVA p .033) was 0.80 x Veh level and the “2-arachidonoyl glycerol level, Mean” value [3] was 2.57E-10. The “2-linoleoyl glycerol level, Mean” value [3] was 1E-10, the “2-oleoyl glycerol level, Mean” value [3] was 1.24E-09 and the “2-palmitoyl glycerol level, Mean” value [3] was 2.63E-09. For the same compound, the “6-ketoPGF1α level, Mean” value [3] was 1.26E-11, the “11-OH-THC level, Mean” value [3] was “BDL” and the “11-nor-9-carboxyTHC level, Mean” value [3] was “BDL”. The “Arachidonic acid level, Mean” value [3] was 1.92E-10, the “Cannabidiol level, Mean” value [3] was “BDL” and the “Linoleic acid level, Mean” value [3] was 1.86E-10. The “N- stearoyl valine level, Mean” value [3] was “PISSR”, the “N-arachidonoyl GABA level, Mean” value [3] was 6.6E-12 and the “N-arachidonoyl alanine level, Mean” value [3] was “PISSR”. For the same compound, the “N-arachidonoyl dopamine level, Mean” value [3] was “BDL”, the “N-arachidonoyl ethanolamine level, Mean” value [3] was 2.54E-11 and the “N-arachidonoyl glycine level, Mean” value [3] was 4.44E-13. The “N-arachidonoyl methionine level, Mean” value [3] was “BDL”, the “N-arachidonoyl phenylalanine level, Mean” value [3] was 3.4E-13 and the “N-arachidonoyl proline level, Mean” value [3] was “BDL”. For the same compound, the “N-arachidonoyl serine level, Mean” value [3] was “PISSR”, the “N-arachidonoyl taurine level, Mean” value [3] was 6.54E-12 and the “N-arachidonoyl tryptophan level, Mean” value [3] was “BDL”. The “N-arachidonoyl tyrosine level, Mean” value [3] was “BDL”, the “N-docosahexaenoyl GABA level, Mean” value [3] was “PISSR” and the “N-docosahexaenoyl alanine level, Mean” value [3] was “PISSR”. The “N-docosahexaenoyl ethanolamine level, Mean” value [3] was 3.64E-11, the “N-docosahexaenoyl glycine level, Mean” value [3] was 1.54E-13 and the “N-docosahexaenoyl leucine level, Mean” value [3] was “PISSR”.
